According to patent US11278541B2, “Low dose combination therapy for treatment of myeloproliferative neoplasms” (Incyte Corporation, priority 2017, dated 2022):
Where a name gives a salt, the structure may show the parent alone.

What was measured:
[1] = molecular target: T1, Pim1 (Homo sapiens, UniProt P11309); test: Pim-1 kinase assay (Assay B); assay type: biochemical; conditions: 1 mM ATP
T1 construct: purchased Invitrogen PV3503
Procedure: Pim-1 and Pim-3 kinase assays—20 μL reactions were run in white 384 well polystyrene plates dotted with 0.8 μL compound/DMSO in the assay buffer (50 mM Tris, pH 7.5, 0.01% Tween-20, 5 mM MgCl2, 0.01% BSA, 5 mM DTT), containing 0.05 μM Biotin-labeled BAD peptide substrate (AnaSpec 62269), 1 mM ATP, and 2.5 pM (Pim-1, Invitrogen PV3503) or 1.25 pM (Pim-3, Millipore 14-738) enzyme for 1 h at 25° C. Reactions were stopped by addition of 10 μL STOP Buffer (150 mM Tris, pH=7.5, 150 mM NaCl, 75 mM EDTA, 0.01% Tween-20, 0.3% BSA) supplemented with Phospho-Bad (Ser112) Antibody (Cell Signaling 9291) diluted 666-fold, and Streptavidin donor beads (PerkinElmer 6760002) along with Protein-A acceptor beads (PerkinElmer 6760137) at 15 μg/mL each. Supplementation of the STOP buffer with beads and stopping the reactions were done under reduced light. Prior to the stopping reactions STOP buffer with beads was pre-incubated for 1 h in the dark at room temperature. After stopping the reactions, plates were incubated for 1 h in the dark at room temperature before reading on a PHERAstar FS plate reader (BMG Labtech) under reduced light.

[2] = molecular target: T2, Pim2 (Homo sapiens, UniProt Q9P1W9); test: Pim-2 kinase assay (Assay B); assay type: biochemical; conditions: 1 mM ATP
T2 construct: purchased Invitrogen PV3649
T2 sequence (Q9P1W9 whole entry): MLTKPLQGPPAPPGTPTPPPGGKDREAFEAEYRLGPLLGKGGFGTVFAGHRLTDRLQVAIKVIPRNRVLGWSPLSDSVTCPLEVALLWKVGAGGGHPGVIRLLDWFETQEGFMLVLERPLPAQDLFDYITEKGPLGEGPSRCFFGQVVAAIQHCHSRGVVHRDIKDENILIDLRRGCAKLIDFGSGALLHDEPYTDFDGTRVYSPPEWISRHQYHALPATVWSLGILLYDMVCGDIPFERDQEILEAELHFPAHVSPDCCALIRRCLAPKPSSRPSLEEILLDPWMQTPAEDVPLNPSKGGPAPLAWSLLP
Procedure: Pim-2 kinase assay—20 μL reactions were run in white 384 well polystyrene plates dotted with 0.8 μL compound/DMSO in the assay buffer (50 mM Tris, pH 7.5, 0.01% Tween-20, 5 mM MgCl2, 0.01% BSA, 5 mM DTT), containing 0.05 μM Fluorescein-labeled CREBtide peptide substrate (Invitrogen PV3508), 1 mM ATP, and 1 nM enzyme (Invitrogen PV3649) for 2 h at 25° C. Reactions were stopped by addition of 10 μL TR-FRET Dilution Buffer (Invitrogen PV3574) with 30 mM EDTA and 1.5 nM LanthaScreen Tb-CREB pSer133 antibody (Invitrogen PV3566). After 30 min. incubation at room temperature, plates were read on a PHERAstar FS plate reader (BMG Labtech).

[3] = molecular target: Pim3 (Homo sapiens, UniProt Q86V86); test: Pim-3 kinase assay (Assay B); assay type: biochemical; conditions: 1 mM ATP
[4] = system: Peripheral blood mononuclear cells from an MPN patient (PV, JAK2-V617F+); test: Epo-independent erythroid colony formation; assay type: cell-based, human; conditions: Compound 1 alone, colonies scored after 12 days
From the text: Epo-independent erythroid colonies were scored after 12 days. […] The lower measured % growth indicates synergy.

[5] = system: pBAD in KMS12BM cell line; test: pBAD inhibition by patient plasma samples incubated ex vivo with KMS12BM cell line; assay type: in vivo, human; conditions: KMS-12-BM, 192 h; 80 mg BID, cycle 1, day 8, time course
Procedure: Plasma samples from patients were incubated ex vivo with the KMS12BM cell line for 2.5 hours at 37° C. Whole cell lysates were prepared from the cells, and levels of pBAD were determined using an ELISA.

[6] = Protein binding in human serum (equilibrium dialysis); assay type: in vitro ADME; conditions: 0.3 μM-10 μM
Procedure: For human, the average in vitro serum fraction unbound (fu) of 7.0%. For the protein binding determination, the Multi-Equilibrium Dialyzer System™ and diachema membranes from Harvard Apparatus (Holliston, Mass.) were utilized. Samples were protein precipitated, matrix matched and then centrifuged. The supernatant was transferred and analyzed using LC-MS/MS. The percent fraction unbound for in vitro samples was calculated using final peak area ratios in post-dialysis buffer divided by final peak area ratios in post-dialysis serum, with correction applied for volume shift.

[7] = Free fraction in media of the Example 3 assay; assay type: in vitro ADME; conditions: cell assay media (Example 3 assay); media of Example 3 assay
From the text: The assay in Example 3 involved plating cells from blood in media. […] The serum free fraction and media free fractions of 7% and 58% can be used to convert the results in Example 3 to an human dose assuming a linear dose-response curve.

[8] = Conversion of Example 3 cell activity to protein-binding adjusted activity and human dose

T1 sequence (P11309 whole entry): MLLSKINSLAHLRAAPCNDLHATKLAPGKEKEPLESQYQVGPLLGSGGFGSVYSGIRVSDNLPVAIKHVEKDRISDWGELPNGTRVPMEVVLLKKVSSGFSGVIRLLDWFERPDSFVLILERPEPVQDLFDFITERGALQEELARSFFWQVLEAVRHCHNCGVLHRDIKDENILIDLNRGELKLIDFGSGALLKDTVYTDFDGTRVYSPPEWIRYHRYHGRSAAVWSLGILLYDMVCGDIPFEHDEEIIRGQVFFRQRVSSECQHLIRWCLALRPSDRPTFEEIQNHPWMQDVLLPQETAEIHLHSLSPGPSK

Row | Compound | IC50 [1] [nM] | IC50 [2] [nM] | IC50 [3] [nM] | neoplastic erythroid colony formation of JAK2-V617F(+) MPN hematopoietic progenitors [4] | inhibition at 80 mg [5] [%] | protein binding [6] | fraction unbound ([6]; read-out: average in vitro serum fraction unbound (fu)) | fraction unbound [7] | shift in activity (media to serum protein binding) ([8]; (58%)/7%) [fold] | inhibition level corresponding to protein-binding adjusted activity ([8]; adjusted activity 8.3 nM) | inhibition level corresponding to protein-binding adjusted activity ([8]; adjusted activity 41 nM) | Protein-binding adjusted activity ([8]; cell activity Example 3: 1 nM) [nM] | Protein-binding adjusted activity ([8]; cell activity Example 3: 5 nM) [nM] | Protein-binding adjusted activity ([8]; cell activity Example 3: 20 nM) [nM]
1 | C[C@H]1CN(c2c(NC(=O)c3ccc(F)c(-c4c(F)cccc4F)n3)cnc3c2CC[C@H]3O)C[C@@H](N)[C@@H]1O [Compound 1, N-{(7R)-4-[(3R,4R,5S)-3-Amino-4-hydroxy-5-methylpiperidin-1-yl]-7-hydroxy-6,7-dihydro-5H-cyclopenta[b]pyridin-3-yl}-6-(2,6-difluorophenyl)-5-fluoropyridine-2-carboxamide] | ≤ 100 | ≤ 100 | ≤ 100 | Inhibition | 76 | high protein binding | 0.07 | 0.58 | 8.3 | IC5.7 | IC23 | 8.3 | 41 | 166
2 | C[C@H]1CN(c2c(NC(=O)c3ccc(F)c(-c4c(F)cccc4F)n3)cnc3c2CC[C@H]3O)C[C@@H](N)[C@@H]1O [dihydrochloric acid salt of Compound 1] | < 35 | < 35 | < 35 |  |  |  |  |  |  |  |  |  |  | 
3 | C[C@H]1CN(c2c(NC(=O)c3ccc(F)c(-c4c(F)cccc4F)n3)cnc3c2CC[C@H]3O)C[C@@H](N)[C@@H]1O [phosphoric acid salt of Compound 1] | < 35 | < 35 | < 35 |  |  |  |  |  |  |  |  |  |  | 
